Results reported in ChEMBL document CHEMBL4622995, “Aryl Ether-Derived Sphingosine-1-Phosphate Receptor (S1P1) Modulators: Optimization of the PK, PD, and Safety Profiles” (ACS Med Chem Lett, 2020).
Each block holds one compound with its values, some of them ahead of it.

Tests used:
Rattus norvegicus [1] = test: Reduction in circulating lymphocytes count in Lewis rat peripheral blood at 2 mg/kg, po measured after 24 hrs by hematology analyzer based analysis; format: functional
[2] = Elimination half-life in Lewis rat at 2 mg/kg, po; format: ADME, organism-based; conditions: in vivo, read-out: beta t1/2 (converted)
Rattus norvegicus [3] = test: Reduction in circulating lymphocytes count in Lewis rat peripheral blood at 0.3 mg/kg, po measured after 24 hrs by hematology analyzer based analysis; format: functional
[4] = Elimination half-life in Lewis rat at 0.3 mg/kg, po; format: ADME, organism-based; conditions: in vivo, read-out: beta t1/2 (converted)
[5] = Cardiotoxicity in human iPSC derived cardiomyocytes assessed as reduction in beating rate at 1 nM; format: toxicity, cell-based, Cardiac muscle cell
[6] = Cardiotoxicity in human iPSC derived cardiomyocytes assessed as reduction in beating rate at 10 nM; format: toxicity, cell-based, Cardiac muscle cell
Homo sapiens = species: Homo sapiens; test: Reduction in absolute lymphocytes count in human at 1.5 mg/day; format: functional
Rattus norvegicus [7] = test: Reduction in circulating lymphocytes count in Lewis rat peripheral blood at 0.1 mg/kg, po measured after 24 hrs by hematology analyzer based analysis; format: functional
Rattus norvegicus [8] = test: Reduction in circulating lymphocytes count in po dosed Lewis rat peripheral blood measured after 24 hrs by hematology analyzer based analysis; format: functional
Sphingosine kinase 2 [9] = target: T1, Sphingosine kinase 2 (Rattus norvegicus, UniProt A6JB73); test: Drug metabolism in Sprague-Dawley rat assessed as SphK2-mediated compound phosphorylation by measuring ratio of phosphorylated compound to parent compound measured after 24 hrs; format: ADME
T1 sequence (A6JB73 whole entry): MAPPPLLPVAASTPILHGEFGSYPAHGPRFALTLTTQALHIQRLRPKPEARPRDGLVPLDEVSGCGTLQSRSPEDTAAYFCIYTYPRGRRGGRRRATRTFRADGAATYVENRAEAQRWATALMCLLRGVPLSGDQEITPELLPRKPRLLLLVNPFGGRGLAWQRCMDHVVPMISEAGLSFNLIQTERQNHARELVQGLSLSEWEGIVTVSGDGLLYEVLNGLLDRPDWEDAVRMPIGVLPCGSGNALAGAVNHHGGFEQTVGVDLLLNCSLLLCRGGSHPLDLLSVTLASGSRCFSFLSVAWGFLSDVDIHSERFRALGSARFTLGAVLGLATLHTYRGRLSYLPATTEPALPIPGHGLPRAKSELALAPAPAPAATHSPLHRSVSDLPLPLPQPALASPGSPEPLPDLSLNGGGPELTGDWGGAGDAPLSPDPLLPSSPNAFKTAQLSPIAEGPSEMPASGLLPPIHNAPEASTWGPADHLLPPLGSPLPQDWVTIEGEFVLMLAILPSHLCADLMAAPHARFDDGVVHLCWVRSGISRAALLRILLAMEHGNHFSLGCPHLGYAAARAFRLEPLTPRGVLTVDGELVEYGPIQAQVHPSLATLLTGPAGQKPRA

[10] = Drug metabolism in Cynomolgous monkey assessed as SphK2-mediated compound phosphorylation by measuring ratio of phosphorylated compound to parent compound measured after 24 hrs; format: ADME, Macaca fascicularis; conditions: cynomolgus monkey
Sphingosine kinase 2 [11] = target: T2, Sphingosine kinase 2 (Homo sapiens, UniProt Q9NRA0); test: Drug metabolism in human assessed as SphK2-mediated compound phosphorylation by measuring ratio of phosphorylated compound to parent compound measured after 24 hrs; format: ADME
T2 sequence (Q9NRA0 whole entry): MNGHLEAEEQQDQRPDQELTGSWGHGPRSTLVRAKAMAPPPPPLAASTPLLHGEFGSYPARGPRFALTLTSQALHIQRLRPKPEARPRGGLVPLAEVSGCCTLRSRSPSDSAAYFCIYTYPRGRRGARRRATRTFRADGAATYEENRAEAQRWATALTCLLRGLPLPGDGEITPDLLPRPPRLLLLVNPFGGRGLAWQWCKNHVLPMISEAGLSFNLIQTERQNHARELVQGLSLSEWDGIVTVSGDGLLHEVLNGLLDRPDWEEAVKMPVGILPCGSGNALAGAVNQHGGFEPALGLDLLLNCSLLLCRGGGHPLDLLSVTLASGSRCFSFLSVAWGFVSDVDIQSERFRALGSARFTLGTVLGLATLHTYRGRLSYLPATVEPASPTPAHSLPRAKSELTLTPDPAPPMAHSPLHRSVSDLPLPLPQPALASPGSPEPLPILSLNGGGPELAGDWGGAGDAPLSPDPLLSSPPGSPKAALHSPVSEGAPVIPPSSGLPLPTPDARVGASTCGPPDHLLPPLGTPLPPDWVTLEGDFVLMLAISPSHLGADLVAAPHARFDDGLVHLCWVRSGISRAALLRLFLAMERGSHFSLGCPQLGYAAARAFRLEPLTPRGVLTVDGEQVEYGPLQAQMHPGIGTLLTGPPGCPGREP

[12] = Pulmonary toxicity in Lewis rat assessed as elevation of BAL protein content at >30XED50, po; conditions: in vivo
Rattus norvegicus [13] = test: Reduction in circulating lymphocytes count in Lewis rat peripheral blood at 0.05 mg/kg, po measured after 24 hrs by hematology analyzer based analysis; format: functional
Rattus norvegicus [14] = test: Reduction in circulating lymphocytes count in Lewis rat peripheral blood at 1 mg/kg, po measured after 24 hrs by hematology analyzer based analysis; format: functional
Rattus norvegicus [15] = test: Reduction in circulating lymphocytes count in Lewis rat peripheral blood at 1.5 mg/kg, po measured after 24 hrs by hematology analyzer based analysis; format: functional
[16] = Elimination half-life in po dose Lewis rat; format: ADME, organism-based; conditions: in vivo, read-out: beta t1/2
[17] = Pulmonary toxicity in Lewis rat assessed as elevation of BAL protein content at 2 mg/kg, po; format: organism-based; conditions: in vivo

half-life [2]: < 10 h
SMILES: COc1ccc(OC[C@@H]2CCc3cc([C@H]4CC[C@](N)(CO)C4)ccc3C2)cc1
inhibition in vivo at 2 mg/kg (Rattus norvegicus [1]): 47%

half-life [4]: 11 h
SMILES: N[C@]1(CO)CC[C@H](c2ccc3c(c2)CC[C@@H](COCc2ccccc2)C3)C1
inhibition in vivo at 0.3 mg/kg (Rattus norvegicus [3]): 49%

SMILES: COc1ccccc1OC[C@@H]1CCc2cc([C@H]3CC[C@](N)(COP(=O)(O)O)C3)ccc2C1
inhibition at 0.001 µM [5]: 20%
inhibition at 0.01 µM [6]: 43%

Ratio (Sphingosine kinase 2 [9]): 5.2
Ratio [10]: 1
Ratio (Sphingosine kinase 2 [11]): 0.6
half-life [2]: 27 h
SMILES: COc1ccccc1CC[C@@H]1CCc2cc([C@H]3CC[C@](N)(CO)C3)ccc2C1 [UDIFITIMOD]
inhibition (INH) (Homo sapiens): >80%
inhibition in vivo at 0.1 mg/kg (Rattus norvegicus [7]): 53%
inhibition in vivo at 2 mg/kg (Rattus norvegicus [1]): 81%
ED50 (Rattus norvegicus [8]): 0.1 mg/kg

SMILES: N[C@]1(CO)CC[C@H](c2ccc3c(c2)CC[C@H](CSc2ccccc2)C3)C1
inhibition in vivo at 0.3 mg/kg (Rattus norvegicus [3]): 29%

Ratio (Sphingosine kinase 2 [9]): 1.5
Ratio [10]: 1.3
half-life [4]: 24 h
half-life [2]: 24 h
SMILES: COc1cccc(OC[C@@H]2CCc3cc([C@H]4CC[C@](N)(CO)C4)ccc3C2)c1
inhibition in vivo at 0.3 mg/kg (Rattus norvegicus [3]): 80%
inhibition in vivo at 2 mg/kg (Rattus norvegicus [1]): 86%
ED50 (Rattus norvegicus [8]): < 0.05 mg/kg
Activity [12]: Non-Toxic
inhibition in vivo at 0.05 mg/kg (Rattus norvegicus [13]): 72%
inhibition in vivo at 1 mg/kg (Rattus norvegicus [14]): 80%
inhibition in vivo at 1.5 mg/kg (Rattus norvegicus [15]): 81%

SMILES: COc1ccc(OC[C@@H]2CCc3cc([C@H]4CC[C@](N)(CO)C4)ccc3C2)cc1C(C)(C)C
inhibition in vivo at 2 mg/kg (Rattus norvegicus [1]): 53%

SMILES: COc1cccc(OC[C@@H]2CCc3cc([C@H]4CC[C@](N)(COP(=O)(O)O)C4)ccc3C2)c1
inhibition at 0.001 µM [5]: 13%
inhibition at 0.01 µM [6]: 30%

SMILES: COc1cccc(CO[C@@H]2CCc3cc([C@H]4CC[C@](N)(CO)C4)ccc3C2)c1
inhibition in vivo at 0.3 mg/kg (Rattus norvegicus [3]): 15%

half-life [2]: 21 h
SMILES: COc1cccc(SC[C@@H]2CCc3cc([C@H]4CC[C@](N)(CO)C4)ccc3C2)c1
inhibition in vivo at 2 mg/kg (Rattus norvegicus [1]): 81%

half-life [2]: 14 h
SMILES: COc1ccccc1OC[C@@H]1CCc2cc([C@H]3CC[C@](N)(CO)C3)ccc2C1
inhibition in vivo at 2 mg/kg (Rattus norvegicus [1]): 85%

half-life [2]: 20 h
SMILES: N[C@]1(CO)CC[C@H](c2ccc3c(c2)CC[C@@H](CSc2ccccc2)C3)C1
inhibition in vivo at 0.3 mg/kg (Rattus norvegicus [3]): 31%
inhibition in vivo at 2 mg/kg (Rattus norvegicus [1]): 73%

SMILES: COc1cccc(CO[C@H]2CCc3cc([C@H]4CC[C@](N)(CO)C4)ccc3C2)c1
inhibition in vivo at 0.3 mg/kg (Rattus norvegicus [3]): 13%

half-life [2]: 46 h
SMILES: N[C@]1(CO)CC[C@H](c2ccc3c(c2)CC[C@@H](COc2ccc(F)cc2)C3)C1
inhibition in vivo at 2 mg/kg (Rattus norvegicus [1]): 74%

SMILES: COc1cccc(COC[C@@H]2CCc3cc([C@H]4CC[C@](N)(CO)C4)ccc3C2)c1
inhibition in vivo at 0.3 mg/kg (Rattus norvegicus [3]): 40%

SMILES: N[C@]1(COP(=O)(O)O)CC[C@H](c2ccc3c(c2)CC[C@@H](COCc2ccccc2)C3)C1
inhibition at 0.001 µM [5]: 16%
inhibition at 0.01 µM [6]: 52%

SMILES: COc1ccccc1SC[C@@H]1CCc2cc([C@H]3CC[C@](N)(COP(=O)(O)O)C3)ccc2C1
inhibition at 0.001 µM [5]: 16%
inhibition at 0.01 µM [6]: 26%

SMILES: COc1ccc(OC[C@@H]2CCc3cc([C@H]4CC[C@](N)(CO)C4)ccc3C2)c(F)c1F
inhibition in vivo at 2 mg/kg (Rattus norvegicus [1]): 48%

SMILES: CCCCCC[C@@H]1CCc2cc([C@H]3CC[C@](N)(COP(=O)(O)O)C3)ccc2C1
inhibition at 0.001 µM [5]: 1%
inhibition at 0.01 µM [6]: 32%

SMILES: COc1ccc(COC[C@@H]2CCc3cc([C@H]4CC[C@](N)(CO)C4)ccc3C2)cc1
inhibition in vivo at 0.3 mg/kg (Rattus norvegicus [3]): 33%

half-life [2]: 35 h
SMILES: Cc1ccc(OC[C@@H]2CCc3cc([C@H]4CC[C@](N)(CO)C4)ccc3C2)cc1
inhibition in vivo at 2 mg/kg (Rattus norvegicus [1]): 20%

SMILES: N[C@]1(CO)CC[C@H](c2ccc3c(c2)CC[C@H](COCc2ccccc2)C3)C1
inhibition in vivo at 0.3 mg/kg (Rattus norvegicus [3]): 0%

SMILES: COc1cccc(SC[C@@H]2CCc3cc([C@H]4CC[C@](N)(COP(=O)(O)O)C4)ccc3C2)c1
inhibition at 0.001 µM [5]: 30%
inhibition at 0.01 µM [6]: 44%

Ratio (Sphingosine kinase 2 [9]): 2.5
Ratio [10]: 0.3
Ratio (Sphingosine kinase 2 [11]): 0.1
half-life [16]: > 100 h
SMILES: CCCCCC[C@@H]1CCc2cc([C@H]3CC[C@](N)(CO)C3)ccc2C1 [BMS-986104]
ED50 (Rattus norvegicus [8]): 0.25 mg/kg

SMILES: COc1cccc(OC[C@H]2CCc3cc([C@H]4CC[C@](N)(CO)C4)ccc3C2)c1
inhibition in vivo at 0.3 mg/kg (Rattus norvegicus [3]): 70%

half-life [2]: 24 h
SMILES: COc1ccccc1SC[C@@H]1CCc2cc([C@H]3CC[C@](N)(CO)C3)ccc2C1
inhibition in vivo at 2 mg/kg (Rattus norvegicus [1]): 78 to 79%
Activity [17]: 67%

SMILES: COc1ccccc1CC[C@@H]1CCc2cc([C@H]3CC[C@](N)(COP(=O)(O)O)C3)ccc2C1
inhibition at 0.001 µM [5]: 11%
inhibition at 0.01 µM [6]: 27%

SMILES: COc1ccccc1CC[C@H]1CCc2cc([C@H]3CC[C@](N)(CO)C3)ccc2C1
inhibition in vivo at 0.1 mg/kg (Rattus norvegicus [7]): 17%
